Experimental data reported in patent publication US20230139445A1, “BACTERIAL CELLS WITH IMPROVED TOLERANCE TO DIACIDS” (priority 2016, published 2023).
Read-outs that look alike come from different tables or passages of the source.

Legend:
[1] = test system: Escherichia coli K-12 MG1655 and evolved isolates; assay type: cell-based; conditions: 55 g/L malic acid
Protocol: (§1) Five colonies from wild-type K-12 MG1655 and 10 individual colonies deriving from each population were inoculated into 300 μL M9+1% glucose in 96 well deepwell plates and incubated in a 300 rpm plate shaker at 37° C. The next day, cells were diluted 10× in M9+1% glucose and 30 μL was transferred into clear-bottomed 96 well half-deepwell plates (with rectangular wells) containing M9+1% glucose and M9+1% glucose+52.78 g/L glutaric acid or 55.56 g/L adipic acid, such that the final concentration of glutaric acid or adipic acid was 47.5 g/L or 50 g/L, respectively. In addition, cryogenic glycerol stocks of the overnight culture were saved in a 96 well plate format. Half deepwell plates were incubated at 37° C. with 225 rpm shaking in a Growth Profiler (Enzyscreen), with optical scans of the plates taken at 15 minute intervals. Green pixel values integrated over a 1 mm diameter circular area in each well were converted to OD600 values using a previously determined calibration between OD600 and green pixel values.
(§2) Additionally, each evolved isolate was tested for cross-tolerance toward other dicarboxylic acids of interest. […] All diacids tested were either the neutral sodium salts, or the free diacid was neutralized with sodium hydroxide to pH 7.0 for testing.

[2] = test system: Escherichia coli K-12 MG1655; test: Growth of K-12 MG1655 in varying concentrations of fumaric, itaconic, malic and succinic acid, Growth Profiler; assay type: cell-based
Protocol: as §1, §2

O=C(O)CC(O)C(=O)O (centres unmarked) [malic acid]
growth rate μ (mean) ([1]; strain ADIP1-1): 0.333 h⁻¹ | lag time tlag (mean) ([1]; strain ADIP1-1): 12.8 h | growth rate μ (mean) ([1]; strain ADIP1-9): 0.336 h⁻¹ | lag time tlag (mean) ([1]; strain ADIP1-9): 10.7 h | growth rate μ (mean) ([1]; strain ADIP2-5): 0.338 h⁻¹ | lag time tlag (mean) ([1]; strain ADIP2-5): 17.9 h | growth rate μ (mean) ([1]; strain ADIP2-6): 0.348 h⁻¹ | lag time tlag (mean) ([1]; strain ADIP2-6): 16.8 h | growth rate μ (mean) ([1]; strain ADIP2-10): 0.347 h⁻¹ | lag time tlag (mean) ([1]; strain ADIP2-10): 16.8 h | growth rate μ (mean) ([1]; strain ADIP3-2): 0.318 h⁻¹ | lag time tlag (mean) ([1]; strain ADIP3-2): 10.7 h | growth rate μ (mean) ([1]; strain ADIP3-4): 0.347 h⁻¹ | lag time tlag (mean) ([1]; strain ADIP3-4): 9.9 h | growth rate μ (mean) ([1]; strain ADIP3-8): 0.329 h⁻¹ | lag time tlag (mean) ([1]; strain ADIP3-8): 11.4 h | growth rate μ (mean) ([1]; strain ADIP4-1): 0.275 h⁻¹ | lag time tlag (mean) ([1]; strain ADIP4-1): 12.1 h | growth rate μ (mean) ([1]; strain ADIP4-8): 0.238 h⁻¹ | lag time tlag (mean) ([1]; strain ADIP4-8): 13.4 h | growth rate μ (mean) ([1]; strain ADIP5-2): 0.299 h⁻¹ | lag time tlag (mean) ([1]; strain ADIP5-2): 10.1 h | growth rate μ (mean) ([1]; strain ADIP5-6): 0.404 h⁻¹ | lag time tlag (mean) ([1]; strain ADIP5-6): 10.2 h | growth rate μ (mean) ([1]; strain ADIP6-3): 0.295 h⁻¹ | lag time tlag (mean) ([1]; strain ADIP6-3): 11.6 h | growth rate μ (mean) ([1]; strain ADIP6-9): 0.250 h⁻¹ | lag time tlag (mean) ([1]; strain ADIP6-9): 12.7 h | growth rate μ (mean) ([1]; strain ADIP6-10): 0.323 h⁻¹ | lag time tlag (mean) ([1]; strain ADIP6-10): 10.0 h | growth rate μ (mean) ([1]; strain ADIP7-2): 0.329 h⁻¹ | lag time tlag (mean) ([1]; strain ADIP7-2): 10.3 h | growth rate μ (mean) ([1]; strain ADIP7-5): 0.326 h⁻¹ | lag time tlag (mean) ([1]; strain ADIP7-5): 10.2 h | growth rate μ (mean) ([1]; strain ADIP8-3): 0.194 h⁻¹ | lag time tlag (mean) ([1]; strain ADIP8-3): 14.4 h | growth rate μ (mean) ([1]; strain ADIP8-7): 0.202 h⁻¹ | lag time tlag (mean) ([1]; strain ADIP8-7): 14.9 h | growth rate μ (mean) ([1]; strain ADIP8-10): 0.202 h⁻¹ | lag time tlag (mean) ([1]; strain ADIP8-10): 14.2 h | growth rate μ (mean) ([1]; strain GLUT1-3): 0.294 h⁻¹ | lag time tlag (mean) ([1]; strain GLUT1-3): 13.5 h | growth rate μ (mean) ([1]; strain GLUT1-9): 0.259 h⁻¹ | lag time tlag (mean) ([1]; strain GLUT1-9): 15.3 h | growth rate μ (mean) ([1]; strain GLUT1-10): 0.286 h⁻¹ | lag time tlag (mean) ([1]; strain GLUT1-10): 19.2 h | growth rate μ (mean) ([1]; strain GLUT2-1): 0.273 h⁻¹ | lag time tlag (mean) ([1]; strain GLUT2-1): 13.7 h | growth rate μ (mean) ([1]; strain GLUT2-9): 0.270 h⁻¹ | lag time tlag (mean) ([1]; strain GLUT2-9): 12.5 h | growth rate μ (mean) ([1]; strain GLUT2-10): 0.282 h⁻¹ | lag time tlag (mean) ([1]; strain GLUT2-10): 12.2 h | growth rate μ (mean) ([1]; strain GLUT3-5): 0.257 h⁻¹ | lag time tlag (mean) ([1]; strain GLUT3-5): 15.4 h | growth rate μ (mean) ([1]; strain GLUT3-7): 0.234 h⁻¹ | lag time tlag (mean) ([1]; strain GLUT3-7): 15.5 h | growth rate μ (mean) ([1]; strain GLUT3-9): 0.252 h⁻¹ | lag time tlag (mean) ([1]; strain GLUT3-9): 20.5 h | growth rate μ (mean) ([1]; strain GLUT4-1): 0.264 h⁻¹ | lag time tlag (mean) ([1]; strain GLUT4-1): 15.9 h | growth rate μ (mean) ([1]; strain GLUT4-4): 0.264 h⁻¹ | lag time tlag (mean) ([1]; strain GLUT4-4): 16.5 h | growth rate μ (mean) ([1]; strain GLUT4-10): 0.250 h⁻¹ | lag time tlag (mean) ([1]; strain GLUT4-10): 15.6 h | growth rate μ (mean) ([1]; strain GLUT5-4): 0.272 h⁻¹ | lag time tlag (mean) ([1]; strain GLUT5-4): 15.3 h | growth rate μ (mean) ([1]; strain GLUT5-5): 0.275 h⁻¹ | lag time tlag (mean) ([1]; strain GLUT5-5): 16.6 h | growth rate μ (mean) ([1]; strain GLUT5-9): 0.246 h⁻¹ | lag time tlag (mean) ([1]; strain GLUT5-9): 16.4 h | growth rate μ (mean) ([1]; strain GLUT6-4): 0.251 h⁻¹ | lag time tlag (mean) ([1]; strain GLUT6-4): 14.5 h | growth rate μ (mean) ([1]; strain GLUT6-5): 0.241 h⁻¹ | lag time tlag (mean) ([1]; strain GLUT6-5): 13.8 h | growth rate μ (mean) ([1]; strain GLUT6-10): 0.245 h⁻¹ | lag time tlag (mean) ([1]; strain GLUT6-10): 14.8 h | growth rate μ (mean) ([1]; strain GLUT7-2): 0.275 h⁻¹ | lag time tlag (mean) ([1]; strain GLUT7-2): 16.1 h | growth rate μ (mean) ([1]; strain GLUT7-6): 0.247 h⁻¹ | lag time tlag (mean) ([1]; strain GLUT7-6): 21.9 h | growth rate μ (mean) ([1]; strain GLUT7-7): 0.185 h⁻¹ | lag time tlag (mean) ([1]; strain GLUT7-7): 19.1 h | growth rate μ (mean) ([1]; strain GLUT8-5): 0.180 h⁻¹ | lag time tlag (mean) ([1]; strain GLUT8-5): 15.8 h | growth rate μ (mean) ([1]; strain GLUT8-6): 0.208 h⁻¹ | lag time tlag (mean) ([1]; strain GLUT8-6): 32.7 h | growth rate μ (mean) ([1]; strain GLUT8-9): 0.192 h⁻¹ | lag time tlag (mean) ([1]; strain GLUT8-9): 47.7 h | growth rate μ (mean) ([1]; strain MG1655 (Table 26)): 0.235 h⁻¹ | lag time tlag (mean) ([1]; strain MG1655 (Table 26)): 17.1 h | growth rate μ (mean) ([1]; strain MG1655 (Table 27)): 0.222 h⁻¹ | lag time tlag (mean) ([1]; strain MG1655 (Table 27)): 16.5 h | μ (mean) ([2]; growth rate of K-12 MG1655, 10 g/L diacid (sodium salt)): 0.686 h^1 | μ (mean) ([2]; growth rate of K-12 MG1655, 20 g/L diacid (sodium salt)): 0.639 h^1 | μ (mean) ([2]; growth rate of K-12 MG1655, 30 g/L diacid (sodium salt)): 0.526 h^1 | μ (mean) ([2]; growth rate of K-12 MG1655, 40 g/L diacid (sodium salt)): 0.410 h^1 | μ (mean) ([2]; growth rate of K-12 MG1655, 50 g/L diacid (sodium salt)): 0.287 h^1 | μ (mean) ([2]; growth rate of K-12 MG1655, 60 g/L diacid (sodium salt)): 0.154 h^1 | tlag (mean) ([2]; lag time of K-12 MG1655, 10 g/L diacid (sodium salt)): 5.9 h | tlag (mean) ([2]; lag time of K-12 MG1655, 20 g/L diacid (sodium salt)): 6.6 h | tlag (mean) ([2]; lag time of K-12 MG1655, 30 g/L diacid (sodium salt)): 8.0 h | tlag (mean) ([2]; lag time of K-12 MG1655, 40 g/L diacid (sodium salt)): 11.1 h | tlag (mean) ([2]; lag time of K-12 MG1655, 50 g/L diacid (sodium salt)): 16.9 h | tlag (mean) ([2]; lag time of K-12 MG1655, 60 g/L diacid (sodium salt)): 28.3 h
